Measurements published in PMC8717895 (Neuro-oncology Advances, 2021).
“Also recorded” adds a separate entry of the source. Like-named read-outs stand apart in the source and are kept apart here. Marks after values point to notes of the source that are not given here.

Type: in vivo, human
[1] = stratum A, Level 1 (100 mg/m^2), Grade 1/2
[2] = stratum A, Level 1 (100 mg/m^2), Grade 3/4
[3] = stratum A, Level 2 (130 mg/m^2), Grade 1/2
[4] = stratum A, Level 2 (130 mg/m^2), Grade 3/4
[5] = stratum A, Level 3 (170 mg/m^2), Grade 1/2
[6] = stratum A, Level 3 (170 mg/m^2), Grade 3/4
[7] = stratum A, Level 4 (220 mg/m^2), Grade 1/2
[8] = stratum A, Level 4 (220 mg/m^2), Grade 3/4

## CC1(COc2ccc3c(c2)ncn3-c2ccc3cccc(N4CCC(N)CC4)c3n2)COC1 [crenolanib]
Once daily with food, with or without RT
  Recommended pediatric phase II dosage: 170 mg/m^2
[1]
  ALT increased: 10 (83%)
  AST increased: 6 (50%)
  Abdominal pain: 2 (17%)
  Alkaline phosphatase increased: 1 (8%)
  Anemia: 3 (25%)
  Anorexia: 1 (8%)
  Diarrhea: 2 (17%)
  Dyspepsia: 2 (17%)
  GGT increased: 5 (42%)
  Headache: 0
  Hematuria: 3 (25%)
  Hypermagnesemia: 3 (25%)
  Hypernatremia: 1 (8%)
  Hypoalbuminemia: 7 (58%)
  Hypocalcemia: 1 (8%)
  Hypokalemia: 5 (42%)
  Hypophosphatemia: 7 (58%)
  Lipase increased: 5 (42%)
  Lymphocyte count decreased: 2 (17%)
  Nausea: 8 (67%)
  Neutrophil count decreased: 0
  Platelet count decreased: 4 (33%)
  Proteinuria: 4 (33%)
  Serum amylase increased: 4 (33%)
  Stomach pain: 1 (8%)
  Vomiting: 8 (67%)
  White blood cell decreased: 4 (33%)
[2]
  ALT increased: 1 (8%)
  AST increased: 0
  Abdominal pain: 0
  Alkaline phosphatase increased: 0
  Anemia: 1 (8%)
  Anorexia: 0
  Diarrhea: 0
  Dyspepsia: 0
  GGT increased: 3 (25%)
  Headache: 1 (8%)
  Hematuria: 0
  Hypermagnesemia: 0
  Hypernatremia: 0
  Hypoalbuminemia: 0
  Hypocalcemia: 0
  Hypokalemia: 1 (8%)
  Hypophosphatemia: 0
  Lipase increased: 2 (17%)
  Lymphocyte count decreased: 8 (67%)
  Nausea: 0
  Neutrophil count decreased: 5 (42%)^a
  Platelet count decreased: 1 (8%)
  Proteinuria: 1 (8%)
  Serum amylase increased: 2 (17%)
  Stomach pain: 0
  Vomiting: 1 (8%)
  White blood cell decreased: 5 (42%)
[3]
  ALT increased: 2 (33%)
  AST increased: 4 (67%)
  Abdominal pain: 3 (50%)
  Alkaline phosphatase increased: 3 (50%)
  Anemia: 3 (50%)
  Anorexia: 1 (17%)
  Diarrhea: 3 (50%)
  Dyspepsia: 0
  GGT increased: 5 (83%)
  Headache: 1 (17%)
  Hematuria: 2 (33%)
  Hypermagnesemia: 1 (17%)
  Hypernatremia: 1 (17%)
  Hypoalbuminemia: 2 (33%)
  Hypocalcemia: 2 (33%)
  Hypokalemia: 1 (17%)
  Hypophosphatemia: 3 (50%)
  Lipase increased: 2 (33%)
  Lymphocyte count decreased: 0
  Nausea: 5 (83%)
  Neutrophil count decreased: 1 (17%)
  Platelet count decreased: 3 (50%)
  Proteinuria: 5 (83%)
  Serum amylase increased: 0
  Stomach pain: 2 (33%)
  Vomiting: 6 (100%)
  White blood cell decreased: 3 (50%)
[4]
  ALT increased: 2 (33%)
  AST increased: 0
  Abdominal pain: 0
  Alkaline phosphatase increased: 0
  Anemia: 0
  Anorexia: 0
  Diarrhea: 0
  Dyspepsia: 0
  GGT increased: 0
  Headache: 1 (17%)
  Hematuria: 0
  Hypermagnesemia: 0
  Hypernatremia: 0
  Hypoalbuminemia: 0
  Hypocalcemia: 0
  Hypokalemia: 1 (17%)
  Hypophosphatemia: 0
  Lipase increased: 0
  Lymphocyte count decreased: 6 (100%)
  Nausea: 0
  Neutrophil count decreased: 2 (33%)
  Platelet count decreased: 0
  Proteinuria: 1 (17%)
  Serum amylase increased: 1 (17%)
  Stomach pain: 0
  Vomiting: 0
  White blood cell decreased: 2 (33%)
[5]
  ALT increased: 4 (67%)
  AST increased: 5 (83%)
  Abdominal pain: 2 (33%)
  Alkaline phosphatase increased: 2 (33%)
  Anemia: 3 (50%)
  Anorexia: 3 (50%)
  Diarrhea: 3 (50%)
  Dyspepsia: 1 (17%)
  GGT increased: 4 (67%)
  Headache: 0
  Hematuria: 3 (50%)
  Hypermagnesemia: 3 (50%)
  Hypernatremia: 2 (33%)
  Hypoalbuminemia: 4 (67%)
  Hypocalcemia: 1 (17%)
  Hypokalemia: 2 (33%)
  Hypophosphatemia: 3 (50%)
  Lipase increased: 1 (17%)
  Lymphocyte count decreased: 2 (33%)
  Nausea: 5 (83%)
  Neutrophil count decreased: 1 (17%)
  Platelet count decreased: 2 (33%)
  Proteinuria: 5 (83%)
  Serum amylase increased: 3 (50%)
  Stomach pain: 0
  Vomiting: 6 (100%)
  White blood cell decreased: 4 (67%)
[6]
  ALT increased: 2 (33%)
  AST increased: 1 (17%)
  Abdominal pain: 0
  Alkaline phosphatase increased: 0
  Anemia: 0
  Anorexia: 0
  Diarrhea: 0
  Dyspepsia: 0
  GGT increased: 2 (33%)^a
  Headache: 0
  Hematuria: 0
  Hypermagnesemia: 0
  Hypernatremia: 0
  Hypoalbuminemia: 0
  Hypocalcemia: 0
  Hypokalemia: 2 (33%)
  Hypophosphatemia: 0
  Lipase increased: 0
  Lymphocyte count decreased: 4 (67%)
  Nausea: 0
  Neutrophil count decreased: 0
  Platelet count decreased: 0
  Proteinuria: 0
  Serum amylase increased: 0
  Stomach pain: 0
  Vomiting: 0
  White blood cell decreased: 1 (17%)
[7]
  ALT increased: 6 (75%)
  AST increased: 7 (88%)
  Abdominal pain: 1 (13%)
  Alkaline phosphatase increased: 1 (13%)
  Anemia: 6 (75%)
  Anorexia: 2 (25%)
  Diarrhea: 4 (50%)
  Dyspepsia: 0
  GGT increased: 6 (75%)
  Headache: 1 (13%)
  Hematuria: 2 (25%)
  Hypermagnesemia: 5 (63%)
  Hypernatremia: 0
  Hypoalbuminemia: 6 (75%)
  Hypocalcemia: 3 (38%)
  Hypokalemia: 3 (38%)
  Hypophosphatemia: 6 (75%)
  Lipase increased: 2 (25%)
  Lymphocyte count decreased: 0
  Nausea: 7 (88%)
  Neutrophil count decreased: 1 (13%)
  Platelet count decreased: 3 (38%)
  Proteinuria: 5 (63%)
  Serum amylase increased: 3 (38%)
  Stomach pain: 0
  Vomiting: 8 (100%)
  White blood cell decreased: 7 (88%)
[8]
  ALT increased: 2 (25%)^a
  AST increased: 0
  Abdominal pain: 0
  Alkaline phosphatase increased: 0
  Anemia: 0
  Anorexia: 0
  Diarrhea: 0
  Dyspepsia: 0
  GGT increased: 1 (13%)^a
  Headache: 0
  Hematuria: 0
  Hypermagnesemia: 0
  Hypernatremia: 0
  Hypoalbuminemia: 0
  Hypocalcemia: 1 (13%)
  Hypokalemia: 2 (25%)
  Hypophosphatemia: 1 (13%)
  Lipase increased: 0
  Lymphocyte count decreased: 8 (100%)
  Nausea: 0
  Neutrophil count decreased: 0
  Platelet count decreased: 0
  Proteinuria: 0
  Serum amylase increased: 0
  Stomach pain: 0
  Vomiting: 0
  White blood cell decreased: 0
Stratum A, dose level 1
  DLTs attributable to crenolanib during the DLT observation period: grade 4 neutropenia
Stratum A, dose level 3
  DLTs attributable to crenolanib during the DLT observation period: grade 3 gamma-glutamyl transferase (GGT) elevation
Stratum A, dose level 4
  DLTs attributable to crenolanib during the DLT observation period: grade 3 GGT elevation; also recorded: grade 3 ALT elevation
Stratum A, during and after the DLT period
  patients having grade 3/4 elevations of ALT, AST, GGT, or alkaline phosphatase: 28%
Stratum A, once daily during and after RT, pediatric
  Maximum tolerated dose (MTD): 170 mg/m^2
Stratum A, resolved with drug interruption
  Most common grade 3/4 toxicity: leukopenia
